Reference: DBAASP
Converted amounts (≈) assume the structure as drawn. “And” between values parts separate entries of the source, which are not always exact repeats. Equal entries are not always repeated.

Key:
Assay in all cases: ≥ marks a high value that may be exact or a test limit, other limits are often not marked, values filed in µg/mL are converted to µM
[1] = test system: Pseudomonas aeruginosa ATCC 27853
[2] = test system: Escherichia coli ATCC 54127
[3] = test system: Escherichia coli ATCC 25922
[4] = test system: Staphylococcus aureus ATCC 25923
[5] = test system: Pseudomonas aeruginosa CIP A22
[6] = test system: Bacillus subtilis VKM B-886
[7] = test system: Pseudomonas aeruginosa PAO1
[8] = test system: Klebsiella pneumoniae CI 287
[9] = test system: Staphylococcus aureus 209P
[10] = test system: Cryptococcus neoformans var. grubii H99
[11] = test system: Staphylococcus aureus ATCC 29213
[12] = test system: Candida parapsilosis ATCC 22019
Candida krusei IFM 56881 = test system: Candida krusei IFM 56881
Escherichia coli ML-35p = test system: Escherichia coli ML-35p
Candida albicans SC5314 = test system: Candida albicans SC5314
[13] = test system: Micrococcus luteus VKM B-1314
[14] = test system: Staphylococcus aureus ATCC 8530
[15] = test system: Pseudomonas putida NCIM 2102
[16] = test system: Saccharomyces cerevisiae ATCC 8530
Bacillus subtilis = test system: Bacillus subtilis
Micrococcus luteus MT166 = test system: Micrococcus luteus MT166
Escherichia coli W160-37 = test system: Escherichia coli W160-37
Escherichia coli = test system: Escherichia coli
[17] = test system: Salmonella enterica subsp. enterica serovar Enteritidis
[18] = test system: Staphylococcus aureus USA 300
Listeria innocua = test system: Listeria innocua
[19] = test system: Candida albicans ATCC 90028
[20] = test system: Staphylococcus aureus USA 100
[21] = test system: Pseudomonas aeruginosa ATCC 9027
Micrococcus luteus = test system: Micrococcus luteus
Cutibacterium acnes PJI2 = test system: Cutibacterium acnes PJI2
[22] = test system: Klebsiella pneumoniae 1549216
[23] = test system: Enterococcus faecalis ATCC 19433
[24] = test system: Enterobacter cloacae 218R
Cutibacterium acnes C2 = test system: Cutibacterium acnes C2
Pseudomonas aeruginosa = test system: Pseudomonas aeruginosa
[25] = test system: Salmonella typhimurium C587
Escherichia coli O157 = test system: Escherichia coli O157
[26] = test system: Salmonella enterica subsp. enterica serovar Typhimurium ATCC 14028s
[27] = test system: Acinetobacter baumannii ATCC 17987
Escherichia coli HB101 = test system: Escherichia coli HB101
[28] = test system: Klebsiella pneumoniae ATCC 13883
Acinetobacter baumannii = test system: Acinetobacter baumannii
[29] = test system: Burkholderia cenocepacia 4813
[30] = test system: Pseudomonas aeruginosa PA14
[31] = test system: Klebsiella pneumoniae KPLN649
[32] = test system: Mycobacterium tuberculosis H37Rv
[33] = test system: Pseudomonas putida GPp104
Escherichia coli JM109 = test system: Escherichia coli JM109
[34] = test system: Escherichia coli BL21(DE3)
Cupriavidus necator H16 = test system: Cupriavidus necator H16
[35] = test system: Staphylococcus epidermidis PIA 8400
[36] = test system: Enterococcus faecalis ATCC 29212

## CC[C@H](C)[C@H](NC(=O)CNC(=O)[C@H](CCCCN)NC(=O)[C@H](CC(C)C)NC(=O)[C@H](CCSC)NC(=O)[C@H](CC(N)=O)NC(=O)[C@H](CCCCN)NC(=O)[C@H](Cc1c[nH]c2ccccc12)NC(=O)[C@H](CC(C)C)NC(=O)[C@H](C)N)C(=O)NCC(=O)N[C@@H](CCCCN)C(=O)N[C@@H](CC(C)C)C(=O)N[C@@H](C)C(=O)NCC(=O)N[C@@H](CCC(N)=O)C(=O)N[C@@H](C)C(=O)N[C@@H](C)C(=O)N[C@@H](CC(C)C)C(=O)NCC(=O)N[C@@H](C)C(=O)N[C@H](C(=O)N[C@@H](CCCCN)C(=O)N[C@H](C(=O)N[C@@H](CC(C)C)C(=O)N[C@H](C(=O)NCC(=O)N[C@@H](C)C(=O)O)C(C)C)[C@@H](C)O)C(C)C [ALWKNMLKGIGKLAGQAALGAVKTLVGA]
[1]
  MIC: 5 µM (≈ 13.9 µg/mL)
[2]
  MIC: 2.3 µM (≈ 6.39 µg/mL)
[3]
  MIC: 2.6 µM (≈ 7.23 µg/mL)
[4]
  MIC: 1.3 µM (≈ 3.61 µg/mL)
[5]
  MIC: 2.3 µM (≈ 6.39 µg/mL)

## CC[C@H](C)[C@@H]1NC(=O)CNC(=O)[C@H](CCCN=C(N)N)NC(=O)[C@H](Cc2ccc(O)cc2)NC(=O)[C@@H]2CSSC[C@H](NC1=O)C(=O)N[C@@H](Cc1ccc(O)cc1)C(=O)N[C@@H](CCCN=C(N)N)C(=O)N[C@@H](CCCCN)C(=O)N[C@H](C(=O)N[C@@H](CCCN=C(N)N)C(=O)O)CSSC[C@H](NC(=O)[C@H](Cc1c[nH]c3ccccc13)NC(=O)[C@@H](N)CCCCN)C(=O)N[C@@H](Cc1ccccc1)C(=O)N[C@@H](CCCN=C(N)N)C(=O)N[C@@H](C(C)C)C(=O)N2 [KWCFRVCYRGICYRKCR]
[6]
  MIC: 1 µM (≈ 2.24 µg/mL)
[7]
  MIC: 0.5 µM (≈ 1.12 µg/mL)
[8]
  MIC: 0.5 µM (≈ 1.12 µg/mL)
[9]
  MIC: 0.5 µM (≈ 1.12 µg/mL)
[10]
  MIC: 1.79 µM (≈ 4 µg/mL)
[11]
  MIC: 16 µM (≈ 35.8 µg/mL)
[12]
  MIC: 7.14 µM (≈ 16 µg/mL)
Candida krusei IFM 56881
  MIC: 28.6 µM (≈ 63.9 µg/mL)
Escherichia coli ML-35p
  MIC: 0.062 µM (≈ 0.139 µg/mL)
Candida albicans SC5314
  MIC: 14.3 µM (≈ 31.9 µg/mL)
[13]
  MIC: 2 µM (≈ 4.47 µg/mL)

## CC[C@H](C)[C@@H]1NC(=O)[C@@H]2CCCN2C(=O)[C@H](CC(C)C)NC(=O)[C@@H]2CCCN2C(=O)[C@H]([C@@H](C)CC)NC(=O)[C@H](C)NC(=O)[C@H](Cc2ccc(O)cc2)NC(=O)[C@@H](NC(=O)[C@@H](NC(=O)[C@@H](N)CCCN=C(N)N)C(C)C)CSSC[C@@H](C(=O)N[C@@H](Cc2ccc(O)cc2)C(N)=O)NC1=O [RVCYAIPLPICY]
[14]
  MIC: 21.3 µM (≈ 29.9 µg/mL)
[15]
  MIC: 28.4 µM (≈ 39.9 µg/mL)
[16]
  MIC: ≥ 56.7 µM
Bacillus subtilis
  MIC: 21.3 µM (≈ 29.9 µg/mL)
Micrococcus luteus MT166
  MIC: 21.3 µM (≈ 29.9 µg/mL)
Escherichia coli W160-37
  MIC: 28.4 µM (≈ 39.9 µg/mL)

## NC(N)=NCCC[C@H](N)C(=O)N[C@@H](Cc1ccc(O)cc1)C(=O)N[C@@H](Cc1cnc[nH]1)C(=O)O [RYH]
Escherichia coli
  MIC: 4 µM (≈ 1.9 µg/mL)
[17]
  MIC: 1 µM (≈ 0.475 µg/mL)
[18]
  MIC: ≥ 100 µM
Listeria innocua
  MIC: 1 µM (≈ 0.475 µg/mL)
[19]
  MIC: ≥ 100 µM
[20]
  MIC: ≥ 100 µM
[21]
  MIC: > 100 µM
Micrococcus luteus
  MIC: 4 µM (≈ 1.9 µg/mL)

## CC[C@H](C)[C@H](NC(=O)[C@H](CCCN=C(N)N)NC(=O)[C@@H](NC(=O)[C@H](C)NC(=O)[C@@H](NC(=O)[C@@H](NC(=O)[C@H](CC(C)C)NC(=O)[C@H](CCCN=C(N)N)NC(=O)[C@@H](N)C(C)C)[C@@H](C)CC)C(C)C)C(C)C)C(=O)N[C@@H](Cc1c[nH]c2ccccc12)C(=O)N[C@@H](CCCN=C(N)N)C(=O)N[C@@H](CCCN=C(N)N)C(N)=O [VRLIVAVRIWRR]
Cutibacterium acnes PJI2
  MIC: ≥ 41.6 µM
[22]
  MIC: ≥ 41.6 µM
[23]
  MIC: ≥ 167 µM
[24]
  MIC: ≥ 41.6 µM
Cutibacterium acnes C2
  MIC: ≥ 41.6 µM
Pseudomonas aeruginosa
  MIC: 12.4 µM (≈ 19 µg/mL)
[25]
  MIC: ≥ 41.6 µM
Escherichia coli O157
  MIC: 20.8 µM (≈ 32 µg/mL)
[26]
  MIC: ≥ 41.6 µM
[7]
  MIC: 41.6 µM (≈ 64 µg/mL)
[27]
  MIC: ≥ 83.3 µM
[4]
  MIC: 167 µM (≈ 256 µg/mL)
Escherichia coli HB101
  MIC: 20.8 µM (≈ 32 µg/mL)
[28]
  MIC: 5.21 µM (≈ 7.99 µg/mL)
Acinetobacter baumannii
  MIC: ≥ 83.3 µM
[29]
  MIC: ≥ 167 µM
[30]
  MIC: ≥ 41.6 µM and 20.8 µM
[31]
  MIC: 20.8 µM (≈ 32 µg/mL)
[32]
  MIC: 10.4 µM (≈ 16 µg/mL)

## CC[C@H](C)[C@H](NC(=O)[C@H](Cc1ccc(O)cc1)NC(=O)[C@@H](NC(=O)[C@@H]1CCCN1C(=O)[C@H](CCCN=C(N)N)NC(=O)[C@H](CCCN=C(N)N)NC(=O)[C@@H](NC(=O)[C@@H](N)C(C)C)C(C)C)C(C)C)C(=O)N1CCC[C@H]1C(=O)N[C@@H](CCC(N)=O)C(=O)N1CCC[C@H]1C(=O)N[C@@H](CCCN=C(N)N)C(=O)N1CCC[C@H]1C(=O)N1CCC[C@H]1C(=O)N[C@@H](Cc1cnc[nH]1)C(=O)N1CCC[C@H]1C(=O)N[C@@H](CCCN=C(N)N)C(=O)N[C@@H](CC(C)C)C(=O)O [VVRRPVYIPQPRPPHPRL]
[33]
  MIC: 25 µM (≈ 54.4 µg/mL)
Escherichia coli JM109
  MIC: 12.5 µM (≈ 27.2 µg/mL)
[34]
  MIC: 1.25 µM (≈ 2.72 µg/mL)
Cupriavidus necator H16
  MIC: ≥ 50 µM

## CC(C)C[C@H](NC(=O)[C@H](CCCN=C(N)N)NC(=O)[C@@H](N)Cc1ccc(O)cc1)C(=O)N[C@@H](CCCN=C(N)N)C(=O)N[C@H](C(=O)N[C@@H](CCCCN)C(=O)N[C@@H](Cc1c[nH]c2ccccc12)C(=O)N[C@@H](CCCCN)C(=O)N[C@@H](Cc1c[nH]c2ccccc12)C(N)=O)C(C)C [YRLRVKWKW]
[35]
  MIC: 4.5 µM and 9.74 µM
[1]
  MIC: 18.7 µM and 9.74 µM
[3]
  MIC: 9.74 µM (≈ 13 µg/mL)
[11]
  MIC: 9.74 µM (≈ 13 µg/mL)
[36]
  MIC: 37.5 µM and 74.9 µM
